{"source": "patent US5939413A", "about": "“Piperazine derivatives” (Fujisawa Pharmaceutical Co., Ltd., priority 1995, dated 1999)", "note": "Structures can show the parent of a compound that is named as a salt.", "data": [{"target": "T1, h-NK1 receptors (Homo sapiens, UniProt P25103)", "T1 construct": "expressed in transfected cells; host or cells: CHO cells, permanently expressing; crude membranes", "T1 sequence (P25103 whole entry)": "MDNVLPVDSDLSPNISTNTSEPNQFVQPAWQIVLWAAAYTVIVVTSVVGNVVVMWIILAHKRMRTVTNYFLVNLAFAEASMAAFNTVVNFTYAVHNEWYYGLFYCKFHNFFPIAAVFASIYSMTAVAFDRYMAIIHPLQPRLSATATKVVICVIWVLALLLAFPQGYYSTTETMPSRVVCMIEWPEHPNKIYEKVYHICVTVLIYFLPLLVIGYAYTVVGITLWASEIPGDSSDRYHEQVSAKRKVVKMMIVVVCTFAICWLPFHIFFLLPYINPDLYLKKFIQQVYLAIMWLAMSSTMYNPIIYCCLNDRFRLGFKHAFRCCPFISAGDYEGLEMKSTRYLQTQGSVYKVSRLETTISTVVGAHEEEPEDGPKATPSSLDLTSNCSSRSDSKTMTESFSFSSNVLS", "assay": "125I-BH-Substance P binding to h-NK1 receptors", "conditions": "read-out: inhibition rate of 125I-BH-Substance P binding to h-NK1 receptors", "procedure": "(§1) (a) Crude CHO cell membrane preparation\n(§2) CHO cells permanently expressing h-NK1 receptors were harvested and homogenized with a Dounce homogenizer at 4° C. in a buffer (0.25 M sucrose, […] Tris-HCl pH 7.4, 10 mM MgCl2, 1 mM EDTA, 5 μg/ml p-APMSF). The homogenate was centrifuged (500×g, 10 minutes), and the pellet was resuspended in the same buffer, homogenized, and centrifuged. The two supernatants were combined and centrifuged (100,000×g, 1 hour). The crude cell membranes thus isolated were resuspended in buffer (25 mM Tris-HCl pH 7.4, 10 mM MgCl2, 1 mM EDTA, 5 μg/ml p-APMSF) and stored at -80° C. until use.\n(§3) At the end of the incubation period, the content was quickly filtered over a Wahtman GF/C glass filter (pretreated with 0.1% polyethylene imine for 3 hours prior to use) under aspiration. Each of the filters was then washed four times with 5 ml of buffer (50 mM Tris-HCl pH 7.4, 5 mM MnCl2). […] All data presented are specific binding defined as that displaceable by 3 μM unlabeled Substance P.", "units": {"inhibition at 0.1 µg/mL": "%"}, "values": [{"molecule": "CN1CCCN(C(=O)CN2C[C@@H](Cc3c[nH]c4ccccc34)N(C(=O)c3cc(C(F)(F)F)cc(C(F)(F)F)c3)CC2=O)CC1", "note": "[Example 6, (5R)-4-[3,5-bis(trifluoromethyl)benzoyl]-5-(1H-indol-3-ylmethyl)-1-[(4-methyl-1-homopiperazinyl)carbonylmethyl]-piperazin-2-one hydrochloride]", "inhibition at 0.1 µg/mL": "> 90"}]}, {"target": "T1, h-NK1 receptors", "assay": "125I-BH-Substance P binding to h-NK1 receptors", "conditions": "test compound at 0.1 μg/ml; crude membranes of CHO cells expressing h-NK1 receptors; read-out: inhibition rate of 125I-BH-Substance P binding to h-NK1 receptors", "procedure": "as §1, §2, §3", "units": {"inhibition at 0.1 µg/mL": "%"}, "values": [{"molecule": "CCOC(=O)CN1C[C@@H](Cc2c[nH]c3ccccc23)N(C(=O)c2cc(C(F)(F)F)cc(C(F)(F)F)c2)CC1=O", "note": "[Example 3, (5R)-4-[3,5-bis(trifluoromethyl)benzoyl]-1-(ethoxycarbonylmethyl)-5-(1H-indol-3-ylmethyl)piperazin-2-one]", "inhibition at 0.1 µg/mL": "> 90"}, {"molecule": "CN1CCCN(C(=O)CCCN2C[C@@H](Cc3c[nH]c4ccccc34)N(C(=O)c3cc(C(F)(F)F)cc(C(F)(F)F)c3)CC2=O)CC1", "note": "[Example 7-4]", "inhibition at 0.1 µg/mL": "> 90"}, {"molecule": "O=C(CCCN1C[C@@H](Cc2c[nH]c3ccccc23)N(C(=O)c2cc(C(F)(F)F)cc(C(F)(F)F)c2)CC1=O)N1CCC(N2CCCCC2)CC1", "note": "[Example 7-3]", "inhibition at 0.1 µg/mL": "> 90"}, {"molecule": "NC(=O)CN1C[C@@H](Cc2c[nH]c3ccccc23)N(C(=O)c2cc(C(F)(F)F)cc(C(F)(F)F)c2)CC1=O", "note": "[Example 5, (5R)-4-[3,5-bis(trifluoromethyl)benzoyl]-1-(carbamoylmethyl)-5-(1H-indol-3-ylmethyl)piperazin-2-one]", "inhibition at 0.1 µg/mL": "> 90"}, {"molecule": "CCOC(=O)CCCN1C[C@@H](Cc2c[nH]c3ccccc23)N(C(=O)c2cc(C(F)(F)F)cc(C(F)(F)F)c2)CC1=O", "note": "[Example 2, (5R)-4-[3,5-bis(trifluoromethyl)benzoyl]-1-[3-(ethoxycarbonyl)propyl]-5-(1H-indol-3-ylmethyl)piperazin-2-one]", "inhibition at 0.1 µg/mL": "> 90"}, {"molecule": "O=C(CN1C[C@@H](Cc2c[nH]c3ccccc23)N(C(=O)c2cc(C(F)(F)F)cc(C(F)(F)F)c2)CC1=O)N1CCC(N2CCCCC2)CC1", "note": "[Example 7-1]", "inhibition at 0.1 µg/mL": "> 90"}]}]}
